Data published in PubChem BioAssay (NCI).
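Method: 48-hour compound exposure of cells in 96-well plates, five concentrations, linear interpolation of endpoints. At the TGI there is no net growth.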

Legend:
Experiment in all cases: NCI-60 cell line screen, 48 h
BT-549 breast = test system: BT-549 breast
HCT-116 colon = test system: HCT-116 colon
MCF7 breast = test system: MCF7 breast
SK-MEL-2 melanoma = test system: SK-MEL-2 melanoma
SK-OV-3 ovarian = test system: SK-OV-3 ovarian
DMS 114 small cell lung = test system: DMS 114 small cell lung
DMS 273 small cell lung = test system: DMS 273 small cell lung
LXFL 529 NSCLC = test system: LXFL 529 NSCLC
M19-MEL melanoma = test system: M19-MEL melanoma

SMILES | TGI (BT-549 breast) [µM] | TGI (HCT-116 colon) [µM] | TGI (MCF7 breast) [µM] | TGI (SK-MEL-2 melanoma) [µM] | TGI (SK-OV-3 ovarian) [µM] | TGI (DMS 114 small cell lung) [µM] | TGI (DMS 273 small cell lung) [µM] | TGI (LXFL 529 NSCLC) [µM] | TGI (M19-MEL melanoma) [µM]
NC(=O)SCCC(N)C(=O)O (configuration not stated) | > 100 | > 100 | > 100 | > 100 | > 100 | – | – | – | –
O=C(NNC(=S)NCc1ccccc1)c1csc(NC(=S)NC2CCCCC2)n1 | > 100 | 72.3 | > 100 | 65.7 | > 100 | – | – | – | –
CC(C)(C)OC(=O)NCCCC(=O)NC1(c2cc3ccccc3s2)CCCCC1 | 32.7 | 30.1 | 41 | – | 99.5 | – | – | – | –
CN(C)CCNC(=O)Cn1cnc2cccc([N+](=O)[O-])c2c1=O | – | > 100 | > 100 | > 100 | > 100 | – | – | – | –
CC(C)(C)OC(=O)NCCNCCNc1ccccc1 | > 100 | > 100 | > 100 | > 100 | > 100 | – | – | – | –
CN(C)c1nncc2n[nH]nc12 | > 100 | > 100 | > 100 | > 100 | > 100 | – | – | – | –
CCCCCCCCCC(=O)OCC1OC(n2cc(F)c(=O)[nH]c2=O)C(NC(=O)OCc2ccccc2)C(OC(=O)CCCCCCCCC)C1O (configuration not stated) | – | 28.1 | – | > 100 | > 100 | 49.1 | > 100 | > 100 | > 100
OC(c1ccc2c(c1)OCO2)c1ccc2c(c1)OCO2 | > 100 | > 100 | > 100 | > 100 | > 100 | – | – | – | –
O=C1c2c(ccc3c2CCC3)CC12Cc1ccccc1C2 | – | 19.6 | > 100 | 47.6 | > 100 | – | – | – | –
O=C(O)CCC(N=NNc1ccc(-c2nc3ccccc3[nH]2)cc1)C(=O)O (configuration not stated) | 70.6 | > 100 | > 100 | > 100 | > 100 | – | – | – | –
CCN(CC)C(=S)SC(C(=O)Nc1nnc(-c2ccccc2)o1)c1ccccc1 (configuration not stated) | 35 | 34.7 | 47.7 | 46.7 | > 100 | – | – | – | –
c1ccc(C(=NCCC2CNc3ccccc32)c2ccccc2)cc1 (configuration not stated) | > 100 | > 100 | > 100 | > 100 | > 100 | – | – | – | –
CCNC12CCC(C1)C(C)(C)C2=O (configuration not stated) | > 100 | > 100 | > 100 | > 100 | > 100 | – | – | – | –
O=c1cc(N=Nc2ccc(Cl)c(Cl)c2)[nH]c(=O)[nH]1 | 4.77 | 3.21 | 3.99 | 12 | 30 | – | – | – | –
CC1(c2ccc(Cl)s2)CC(c2ccc(Cl)s2)=C(C#N)C(=C(C#N)C#N)N1 (configuration not stated) | 45.7 | 34.2 | 39.9 | 47.2 | 30.5 | – | – | – | –
O=C1NNC2NC(=O)C3(NN2C1=O)c1ccccc1-c1ccccc13 (configuration not stated) | > 100 | > 100 | > 100 | > 100 | > 100 | – | – | – | –

SMILES | TGI (BT-549 breast) [µM] | TGI (HCT-116 colon) [µM] | TGI (MCF7 breast) [µM] | TGI (SK-MEL-2 melanoma) [µM] | TGI (SK-OV-3 ovarian) [µM] | TGI (DMS 114 small cell lung) [µM] | TGI (DMS 273 small cell lung) [µM] | TGI (LXFL 529 NSCLC) [µM] | TGI (M19-MEL melanoma) [µM]
COC(=O)C1Cc2ccc3c(c2C1=O)CCCC3 (configuration not stated) | > 100 | > 100 | > 100 | > 100 | > 100 | – | – | – | –
COC1(OC)C=CC2C1C1C=CC2C1(OC)OC (configuration not stated) | – | > 100 | > 100 | > 100 | > 100 | – | – | – | –
CCCCCCCCCCCCCCCCCCNc1nc(=O)n(C2CC(O)C(COP(=O)(O)OCC3OC(n4ccc(N)nc4=O)C(O)C3O)O2)cc1F (configuration not stated) | > 100 | > 100 | > 100 | > 100 | > 100 | – | – | – | –
ON[C@H]1C[C@@H](n2cnc3c(NC4CC4)ncnc32)[C@H](O)[C@@H]1O | > 100 | > 100 | > 100 | > 100 | > 100 | – | – | – | –
N#CC(C#N)N=Nc1ccc(-c2nc3ccccc3o2)cc1 | 31.8 | 19.5 | 36.2 | 31.4 | 43.7 | – | – | – | –
COc1cc2c(cc1OC)CC1c3cc(OC)c(OC)cc3CCN1CC2 (configuration not stated) | > 100 | > 100 | > 100 | > 100 | > 100 | – | – | – | –
ONC1=Nc2ccccc2C(=S)N2CSCC12 (configuration not stated) | > 100 | > 100 | > 100 | > 100 | > 100 | – | – | – | –
CSC1=NNC(SC)=NN1 | 0.348 | 0.303 | 0.396 | 0.281 | 0.382 | – | – | – | –
COC(=O)C(COC(=O)/C=C/c1ccc(OC(C)=O)c(OC(C)=O)c1)NC(=O)/C=C/c1ccc(OC(C)=O)c(OC(C)=O)c1 (configuration not stated) | > 100 | 42.6 | > 100 | 36.3 | > 100 | – | – | – | –
O=S(=O)(SC1=NCCN1)c1cccc2ccccc12 | 76 | > 100 | > 100 | > 100 | 45.7 | – | – | – | –
O=C1c2ccccc2C2C1C(c1ccccc1)C1(Cc3ccccc3C1=O)C2c1ccccc1 (configuration not stated) | > 100 | > 100 | > 100 | > 100 | > 100 | – | – | – | –
CCOC(=O)c1c(C)n([O-])c2cc(Cl)c(Cl)cc2[n+]1=O | 75.9 | 46.3 | > 100 | 52 | 85.9 | – | – | – | –
CCCCCCCCCCCCCCCCOP(=O)(O)OCC(NC(C)=O)C(=O)O (configuration not stated) | 34 | > 100 | > 100 | > 100 | > 100 | – | – | – | –
CCOc1ccccc1-c1nc2c(s1)C(=O)c1ccccc1C2=O | – | 29.3 | 46.3 | 30 | 28.2 | – | – | – | –
COc1ccc(C2=C(N)c3ncccc3C2=O)cc1 | > 100 | > 100 | > 100 | > 100 | > 100 | – | – | – | –
O=c1[nH]nc(-c2ccccc2)n1/N=C/c1ccccc1Cl | > 100 | > 100 | > 100 | 46.3 | > 100 | – | – | – | –
